Like-named read-outs stand apart in the source and are kept apart here.

By EC50 is commonly meant the concentration giving half of the maximal effect.

Test [1] has as its system Sabiá pseudotyped virus. As to the kind of experiment: organism not typed. The test is classed as cell-based. The following applies: read-out: Activity (EC50 in μM vs. pseudotyped virus) Sabiá.
For test [2], the system named is Machupo pseudotyped virus. Nature of the test: organism not typed. The test is classed as cell-based.
For test [3], the system named is Junín pseudotyped virus. As to the kind of experiment: organism not typed. The test is classed as cell-based. The following applies: read-out: Activity (EC50 in μM vs. pseudotyped virus) Junín.
For test [4], the system named is Lassa GP-pseudotyped-virus. Nature of the test: microbe, parasite or virus in culture. The test is classed as cell-based, Lassa fever virus. The following applies: Human immunodeficiency virus 1, read-out: Activity (EC50 in μM vs. pseudotyped virus) Lassa.
In test [5] the test system is VSVg pseudotyped virus. Nature of the test: organism not typed. The test is classed as cell-based.
[6] abbreviates: read-out: Activity (EC50 in μM vs. pseudotyped virus) Machupo.
Where [7] appears, read: read-out: Activity (EC50 in μM vs. pseudotyped virus) VSVg.

With `CCOc1ccc(-n2cnc3cc(/C=C\c4ccc(C(C)(C)C)cc4)ccc32)cc1` [Compound 5, 5-[(Z)-2-(4-tert-butylphenyl)vinyl]-1-(4-ethoxyphenyl)benzimidazole], the half-maximal effective concentration (EC50) is less than 1 µM in test [1]; less than 1 µM in test [2] (setting [6]); less than 1 µM in test [3]; less than 1 µM in test [4]; 10 to 50 µM in test [5] (setting [7]).

As for `CCc1ccc(/C=C\c2ccc3c(c2)ncn3-c2ccc(OC(C)C)cc2)cc1` [Compound 9, 5-[(Z)-2-(4-ethylphenyl)vinyl]-1-(4-isopropoxyphenyl)-benzimidazole], the EC50 in test [1] was less than 1 µM; in test [2] (setting [6]) it was less than 1 µM; in test [3], less than 1 µM; in test [4] it was less than 1 µM; in test [5] (setting [7]), 10 to 50 µM.

With `CC(C)Oc1ccc(-n2cnc3cc(/C=C\c4ccc(C(=O)O)cc4)ccc32)cc1` [Compound 45, 4-[(Z)-2-[1-(4-isopropoxyphenyl)benzimidazol-5-yl]vinyl]benzoic acid], the EC50 in test [1] is 1 to 10 µM; in test [2] (setting [6]), less than 1 µM; in test [3], less than 1 µM; in test [4], 10 to 50 µM; in test [5] (setting [7]) it was greater than 50 µM.

Consider `CC(C)Oc1ccc(-n2cnc3cc(/C=C\c4ccc(C(C)(C)C)cc4)ccc32)cc1` [Compound 7, 5-[(Z)-2-(4-tert-butylphenyl)vinyl]-1-(4-isopropoxyphenyl)-benzimidazole], for which the 50% effective concentration (EC50) in test [1] is less than 1 µM; in test [2] (setting [6]), less than 1 µM; in test [3] it was less than 1 µM; in test [4] it was less than 1 µM; in test [5] (setting [7]), 10 to 50 µM.

With `COc1ccc(-n2cnc3cc(/C=C\c4ccc(C(C)C)cc4)cnc32)cc1` [Compound 24, 6-[(Z)-2-(4-isopropylphenyl)vinyl]-3-(4-methoxyphenyl)imidazo[4,5-b]pyridine], the EC50 in test [1] was less than 1 µM; in test [2] (setting [6]), less than 1 µM; in test [3], less than 1 µM; in test [4] it was less than 1 µM; in test [5] (setting [7]) it was 10 to 50 µM.

On to `CC(C)(C)Oc1ccc(-n2cnc3cc(/C=C\c4ccc(C(C)(C)C)cc4)ccc32)cc1` [Compound 17, 1-(4-tert-butoxyphenyl)-5-[(Z)-2-(4-tert-butylphenyl)vinyl]benzimidazole], for which the EC50 is less than 1 µM in test [1], less than 1 µM in test [4] and 10 to 50 µM in test [5] (setting [7]).

`CCOc1ccc(-n2cnc3cc(/C=C\c4ccc(C(C)(C)O)cc4)ccc32)cc1` [Compound 61, 2-[4-[(Z)-2-[1-(4-ethoxyphenyl)benzimidazol-5-yl]vinyl]phenyl]propan-2-ol]: the EC50 in test [1] is less than 1 µM; in test [2] (setting [6]) it was less than 1 µM; in test [3], less than 1 µM; in test [4], less than 1 µM; in test [5] (setting [7]) it was 10 to 50 µM.

With `COc1ccc(-n2cnc3cc(OCc4ccc(C(C)C)cc4)ccc32)cc1` [Compound 30, 5-[(4-isopropylphenyl)methoxy]-1-(4-methoxyphenyl)benzimidazole], the EC50 in test [2] (setting [6]) was less than 1 µM; in test [3], less than 1 µM; in test [4], less than 1 µM; in test [5] (setting [7]), 10 to 50 µM.

As for `CCOc1ccc(-n2cnc3cc(/C=C/c4ccc(C(F)(F)F)cc4)ccc32)cc1` [Compound 12, 1-(4-ethoxyphenyl)-5-[(E)-2-[4-(trifluoromethyl)phenyl]vinyl]benzimidazole], the EC50 in test [2] (read-out: EC50 (Note 1, Machupo)) is 51 µM; in test [3], 10 to 50 µM; in test [4], 10 to 50 µM; in test [5] (read-out: EC50 (Note 2, VSVg)), 196 µM.

With `CCc1ccc(/C=C\c2ccc3c(c2)ncn3-c2ccc(OC(C)(C)C)cc2)cc1` [Compound 15, 1-(4-tert-butoxyphenyl)-5-[(Z)-2-(4-ethylphenyl)-vinyl]benzimidazole], the EC50 in test [1] was less than 1 µM; in test [4], less than 1 µM; in test [5] (setting [7]) it was 10 to 50 µM.

Source of the values: patent US10000486B2 (priority 2012, dated 2018).
